Test results: patent US8865901B2, “Gain-of-function Bcl-2 inhibitors” (priority 2009, dated 2014)
Several values for one entry are separate records, joined by “and”; a condition that tells them apart may be missing. Equal values may be shown once. Read-outs that look alike come from different tables or passages of the source.

What was measured:
[1] = system: TAMH cells over expressing a variant of Bcl-xL (A142L); assay: Cytotoxicity / apoptosis induction in TAMH cells over expressing Bcl-xL variant A142L; assay type: cell-based; details: Table 4; for EC50: TAMH A142L cells; for WT:142L: ratio of TAMH cells expressing Bcl-xL to those expressing A142L
Protocol: (§1) To examine the sensitivity of cells over-expressing Bcl-xL to various mitochondrial inhibitors and apoptosis inducers, cell lines over-expressing Bcl-xL were prepared and tested according to Hockenberry et al. U.S. Pat. No. 7,241,804, hereby incorporated by reference in its entirety. Competitive binding of compounds with fluorescent antimycin A3, and competitive binding of compounds with BH3 peptide and Bcl-2. Competitive binding of compounds with BH-3 peptide were also measured using Bcl-xL as previously described. Id.
(§2) Cell lines were grown in RPMI 1640 medium (Gibco, Grand Island, N.Y.) supplemented with 5% fetal bovine serum (Hyclone, Logan, Utah). Also shown is the ratio of TAMH cells expressing Bcl-xL to those expressing A142L (WT:142L). The assay measures the potency of various compounds with respect to inducing apoptosis in these cells.
(§3) The compounds described in Example 2 were tested for their ability to inhibit Bcl-2 gain-of-function in TAMH cells, TAMH cells overexpressing […] (TAMH-Bcl-xL), TAMH cells transfected with Neo vector (Neo), TAMH cells over expressing a variant of Bcl-xL (A142L) using the methods of Example 1. 3-6.

[2] = system: TAMH cells overexpressing Bcl-xL (TAMH-Bcl-xL, Tabx2s); assay: Cytotoxicity / apoptosis induction in TAMH cells overexpressing Bcl-xL; assay type: cell-based; details: for Neo:Bcl: ratio Neo to Bcl-xL cells
Protocol: as §1, §2, §3
(§4) The effects of the compounds described in Example 8 on TAMH cells, TAMH cells overexpressing Bcl-xL (TAMH-Bcl-xL), TAMH cells transfected with Neo vector (Neo), TAMH cells over expressing a variant of Bcl-xL (A142L) is shown in Table 8
(§5) The effects of the compounds described in Example 10 on TAMH cells, TAMH cells overexpressing Bcl-xL (TAMH-Bcl-xL), TAMH cells transfected with Neo vector (Neo), TAMH cells over expressing a variant of Bcl-xL (A142L) is shown in the following Table 10

H23, NSCLC tumor = assay: Apoptosis induction against solid tumors in vitro, H23; assay type: cell-based
Protocol: (§6) The ability of compounds from Example 2 to induce apoptosis against solid tumors in vitro was tested. Four solid tumors were tested: OVCAR-3, an ovarian tumor; COLO205, a colonic tumor; HOP-62 and H23, both NSCLC tumors. The experimental compounds were compared to 2MeAA and to ABT-737, a clinical stage compound owned by Abbott Pharma.
(§7) The ability of compounds of Example 8 to induce apoptosis against solid tumors in vitro was tested. Four solid tumors were tested: OVCAR-3, an ovarian tumor; COLO205, a colonic tumor; HOP-62 and H23, both NSCLC tumors. The experimental compounds, […]

[3] = system: TAMH cells transfected with Neo vector (Neo); assay: Cytotoxicity / apoptosis induction in TAMH cells transfected with Neo vector; assay type: cell-based; details: for EC50: TAMH Neo cells
Protocol: as §1, §2, §3, §4, §5

COLO205, a colonic tumor = assay: Apoptosis induction against solid tumors in vitro, COLO205; assay type: cell-based
Protocol: as §6, §7

HOP-62, NSCLC tumor = assay: Apoptosis induction against solid tumors in vitro, HOP-62; assay type: cell-based
Protocol: as §6, §7

[4] = system: OVCAR-3, an ovarian tumor; assay: Apoptosis induction against solid tumors in vitro, OVCAR-3; assay type: cell-based
Protocol: as §6, §7

[5] = Table 4, TAMH-Bcl-xL cells, read-out: Bcl-xL
[6] = Table 3, TAMH cells overexpressing Bcl-xL (Tabx2s), read-out: 2S EC50
[7] = Table 5, TAMH cells overexpressing Bcl-xL (Tabx2s), read-out: 2S EC50
[8] = Table 13, read-out: IC50 TAMH Bcl-xL
[9] = Table 13, read-out: IC50 TAMH Neo
[10] = Table 10, read-out: IC50 TAMH Bcl-XL
[11] = Table 10, read-out: IC50 TAMH Neo

SMILES: Oc1c(Br)cc(Cl)cc1/C=N/Nc1ccc(C(F)(F)F)cn1 [Compound 0239]
- EC50 [1]: 13.3 µM
- WT:142L [1]: 3.1
- EC50 [2, 5]: 4.3 µM
- Neo:Bcl ([2]; Table 4): 4
- EC50 (H23, NSCLC tumor; Table 7): 5.6 µM
- EC50 ([3]; Table 4, read-out: Neo): 17.2 µM
- EC50 (COLO205, a colonic tumor; Table 7): > 25 µM
- EC50 (HOP-62, NSCLC tumor; Table 7): 19.1 µM
- EC50 ([4]; Table 7): 4.2 µM

SMILES: CC(C)(C)c1cc(Br)c(O)c(/C=N/Nc2ccccn2)c1 [Compound 0401]
- EC50 [1]: > 25 µM
- WT:142L [1]: 2.2
- EC50 [2, 6]: 1.7 µM
- EC50 [2, 5]: 4.4 µM
- Neo:Bcl ([2]; Table 4): 5.7
- Log P (Log P; Table 3): 4.810
- EC50 ([3]; Table 3, read-out: Neo EC50): 40.8 µM
- EC50 ([3]; Table 4, read-out: Neo): > 25 µM

SMILES: CC(C)(C)c1ccc(Cc2ccc(Oc3ccccc3)cc2O)cc1 [Compound 0155]
- EC50 [2, 7]: 1.9 µM
- Log P (Log P; Table 5): 7.24
- EC50 ([3]; Table 5, read-out: Neo EC50): 12 µM

SMILES: Oc1c(CCl)cc(Cl)cc1Cc1cc(Cl)cc(Cc2cc(Cl)cc(CCl)c2O)c1O [Compound 48444]
- Fold Select. (Neo/Bcl-xL) ([2]; Table 13): 9.3
- IC50 [2, 8]: 1.3 µM
- IC50 [3, 9]: 12.1 µM

SMILES: O=C(c1cc(Br)ccc1O)c1cc(Br)ccc1O [Compound 4631]
- Fold Select. (Neo/Bcl-XL) ([2]; Table 10): 1.7
- IC50 [2, 10]: 8.5 µM
- IC50 [3, 11]: 14 µM

SMILES: Cc1cccc(Cc2ccc(Cc3cccc(C)c3)c(O)c2)c1 [Compound 0051]
- EC50 [2, 7]: 1.5 µM
- Log P (Log P; Table 5): 6.18
- EC50 ([3]; Table 5, read-out: Neo EC50): 15.4 µM

SMILES: Oc1ccc(Cl)cc1Sc1cc(Cl)ccc1O [Compound 4112]
- Fold Select. (Neo/Bcl-XL) ([2]; Table 10): 2.3
- IC50 [2, 10]: 2 µM
- IC50 [3, 11]: 4.7 µM

SMILES: O=[N+]([O-])c1ccc(O)c(/C=N/Nc2nccc3ccccc23)c1O [FH314]
- EC50 (H23, NSCLC tumor; Homo sapiens, NCI-H23, Table 21): 8.2 µM
- EC50 (COLO205, a colonic tumor; Homo sapiens, COLO 205, Table 21): 9.2 µM
- EC50 (HOP-62, NSCLC tumor; Homo sapiens, Table 21): 17.5 µM
- EC50 ([4]; Homo sapiens, Table 21): 3.8 µM

SMILES: Cc1cc(Cc2cc(Br)ccc2O)c(O)c(Cc2cc(Br)ccc2O)c1 [Compound 0039]
- EC50 [2, 7]: 0.7 µM
- EC50 ([3]; Table 5, read-out: Neo EC50): 2.9 µM

SMILES: CC(C)c1ccc(S(=O)(=O)c2ccc([N+](=O)[O-])cc2[N+](=O)[O-])cc1 [Compound 85653]
- Fold Selectivity (Neo/Bcl-XL) ([2]; Table 15): 2.7
- IC50 ([2]; Table 15, read-out: IC50 TAMH Bcl-XL): 4.5 µM
- IC50 ([3]; Table 15, read-out: IC50 TAMH Neo): 12 µM

SMILES: Oc1ccc(Cl)cc1/C=N/Nc1ccccn1 [Compound 0229]
- EC50 [2, 6]: 2.4 µM
- Log P (Log P; Table 3): 2.570
- EC50 ([3]; Table 3, read-out: Neo EC50): ≥ 50 µM

SMILES: Oc1ccc2ccccc2c1Cc1c(O)ccc2ccccc12 [Compound 5992]
- IC50 [2, 10]: 3 µM and 4.4 µM
- IC50 [3, 11]: 12.2 µM and 8 µM

SMILES: COc1ccc(C(=O)N/N=C2\C(=O)c3c(C)cc(C)cc3CC2(C)C)cc1 [Compound 310343]
- IC50 ([2]; Mus musculus, TAMH, Table 16, read-out: TAMH Bcl-XL IC50): 25 µM
- Fold Selectivity (Neo/Bcl-XL) ([2]; Table 16): >4
- IC50 ([3]; Mus musculus, TAMH, Table 16, read-out: TAMH Neo IC50): > 100 µM

SMILES: Oc1ccc(Br)cc1/C=N/Nc1ccccn1 [Compound 0241]
- EC50 [2, 6]: 0.2 µM
- Log P (Log P; Table 3): 2.740
- EC50 ([3]; Table 3, read-out: Neo EC50): ≥ 50 µM

SMILES: [O-][S+](c1cc(Cl)cc(Cl)c1O)c1cc(Cl)cc(Cl)c1O [Compound 523910]
- Fold Select. (Neo/Bcl-XL) ([2]; Table 10): 6.4
- IC50 [2, 10]: 2.2 µM
- IC50 [3, 11]: 14.2 µM

SMILES: Cc1cc(C)c(O)c(Cc2cc(Cl)cc(Cc3cc(C)cc(C)c3O)c2O)c1 [Compound 48167]
- Fold Select. (Neo/Bcl-xL) ([2]; Table 13): 4
- IC50 [2, 8]: 1.4 µM
- IC50 [3, 9]: 5.6 µM

SMILES: Oc1c(Br)cc(Cl)cc1/C=N/Nc1ccc(C(F)(F)F)cn1 [Compound 0275]
- EC50 [2, 6]: 1.4 µM
- Log P (Log P; Table 3): 4.980
- EC50 ([3]; Table 3, read-out: Neo EC50): 9.9 µM

SMILES: Oc1c(Cl)cc(Cl)cc1/C=N/Nc1ccccn1 [Compound 0233]
- EC50 [2, 6]: 3.5 µM
- Log P (Log P; Table 3): 3.190
- EC50 ([3]; Table 3, read-out: Neo EC50): ≥ 50 µM
